Results taken from patent US20260009085A1, “METHODS AND COMPOSITIONS FOR THE DIAGNOSIS AND TREATMENT OF CANCER” (Chengdu Anticancer Bioscience, Ltd., priority 2023, published 2026).

How the values were obtained:
NCI-H23 cells = assay: Immunofluorescent analysis of AURKB mis-localization (6 hours) and polyploidy (72 hours); type: cell-based, human; settings: 6 hours or 72 hours
Method: The proportion of cells with AURKB mis-localization was measured to assess the function of MKLP2 (FIG. 3C). Immunofluorescent analysis of localization of kinetochore proteins AURKB and CREST was determined. Scale bar=10 μm. FIG. 3D is an immunoblot depicting the results of an experiment in which NCI-H23 cells were transiently transfected with MKLP2 siRNA. MKLP2 knockdown efficiency was assayed by immunoblot blot analysis 72 hours after transfection. FIG. 3E are graphs depicting the proportion of cells with AURKB mis-localization after treatment with MKLP2 siRNA after 6 hours of exposure and the proportion of polyploid cells after 72 hours.
Compounds were considered positive for the induction of polyploidy when the percentage of polyploid cells in the interphase population, was ≥5% (with deduction of basal level of polyploid cells) at 72 hours after initiation of treatment (FIG. 3A right panel, FIG. 3B right panel, and FIG. 3E right panel). Polyploid cells were defined as those with multinucleated nuclei, visible upon DAPI staining. The basal level of spontaneous polyploid cells with the screening cell line was less than 1%.
Immunofluorescent (IF) analysis was used to assess enzymatic activity (FIG. 3A left panel, FIG. 3B left panel, and FIG. 3E left panel) and localization of mitotic regulators. […]

Calu6 tumor model = assay: Calu6 xenograft tumor model (tumor growth, body weight, tumor weight, Ki-67); type: in vivo; settings: Calu6 xenografted mice
Method: Xenografted mice were treated with novel antimitotic compounds LXY013, LW33R, and LG157, respectively (FIG. 4A). p-values in FIG. 4A are from Logrank analysis. Tumor growth curves and body weight over the course of the experiments are depicted with vehicle control in black, test compounds in gray (n=6). FIG. 4B is a set of images of tumors and a graph depicting tumor weight at an end-point of 20 days. FIG. 4C is a set of photomicrographs of immunohistochemistry analyses and its quantification, respectively, of Ki-67 expression in xenografts. For LG157, * is p<0.05. p-values in FIG. 4B and FIG. 4C are from multi-parametric analysis. **** is p<0.0001.
Additionally, the volume and weight of tumors in response to the compounds described herein were assessed (FIG. 4A-4B) as well as immunohistochemistry analyses and quantification of Ki-67 expression in xenografts (FIG. 4C).

Structure (SMILES): CNC(=O)c1cc(OC)cc(Oc2ncccc2-c2ccnc(C)c2)c1 [LG157]
- mitotic defects (AURKB mis-localization, polyploidy) (NCI-H23 cells): elicit mitotic defects similar to those seen in cells treated with a known mitotic disruptor, paprotrain
- tumor growth (Calu6 tumor model): inhibition of tumor growth
